According to ChEMBL document CHEMBL1154493, “Oxidative inactivation of protein tyrosine phosphatase 1B by organic hydroperoxides” (Bioorg Med Chem Lett, 2008):
The source made the active and inactive calls. The calls are words filed in the database; no cut-off is given here.

What was measured:
[1] = target: T1, Tyrosine-protein phosphatase non-receptor type 1 (Homo sapiens) (UniProt P18031); test: Inactivation of PTP1B at 150 nM
T1 sequence (whole entry): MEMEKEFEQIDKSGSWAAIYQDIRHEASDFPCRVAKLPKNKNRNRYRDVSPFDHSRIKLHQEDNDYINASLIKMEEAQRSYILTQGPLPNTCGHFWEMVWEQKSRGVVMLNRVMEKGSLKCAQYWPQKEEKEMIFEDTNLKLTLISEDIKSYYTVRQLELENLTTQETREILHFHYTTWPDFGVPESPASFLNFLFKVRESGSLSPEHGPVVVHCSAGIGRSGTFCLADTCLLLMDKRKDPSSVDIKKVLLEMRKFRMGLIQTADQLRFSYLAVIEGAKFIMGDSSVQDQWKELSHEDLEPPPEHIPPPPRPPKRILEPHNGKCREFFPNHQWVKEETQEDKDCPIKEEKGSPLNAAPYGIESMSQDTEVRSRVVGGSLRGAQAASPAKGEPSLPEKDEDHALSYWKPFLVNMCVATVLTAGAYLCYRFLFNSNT

[2] = target: T1, Tyrosine-protein phosphatase non-receptor type 1 (Homo sapiens); test: Inactivation of PTP1B at 15 uM after 15 sec
[3] = target: T1, Tyrosine-protein phosphatase non-receptor type 1 (Homo sapiens); test: Inactivation of PTP1B assessed as return of enzyme activity at 5 uM after 10 mins in presence of dithiothreitol
[4] = target: T1, Tyrosine-protein phosphatase non-receptor type 1 (Homo sapiens); test: Inactivation of PTP1B at 15 uM after 15 sec in presence of phosphate ion
[5] = target: T1, Tyrosine-protein phosphatase non-receptor type 1 (Homo sapiens); test: Inactivation of PTP1B at 15 uM after 15 sec in presence of glutathione
[6] = target: T2, Tyrosine-protein phosphatase non-receptor type 1 (Homo sapiens, UniProt P18031); test: Inhibition of PTP1B
T2 sequence (P18031 whole entry): T1 sequence (whole entry)

[7] = target: T1, Tyrosine-protein phosphatase non-receptor type 1 (Homo sapiens); test: Inactivation of PTP1B assessed as return of enzyme activity at 800 nM for 10 mins in presence of dithiothreitol

| SMILES | Activity [1] | Activity [2] | Activity [3] | Activity [4] | Activity [5] | Ki [6] | Activity [7] |
| --- | --- | --- | --- | --- | --- | --- | --- |
| O=C(O)c1ccccc1C(=O)OO | Active | – | – | – | – | – | – |
| O=C(OO)c1cccc(Cl)c1 | Active | – | – | – | – | – | – |
| CC(=O)OO [ETHANEPEROXOIC ACID] | – | 88% | 10% | 49% | 29% | 17 mM | 73% |
